The test deals with BDF1 mice, P388 leukemia ip, median survival T/C. Put plainly: NCI In Vivo Anticancer Drug Screen. Data for tumor model P388 Leukemia (intraperitoneal) in B6D2F1 (BDF1) mice. As to conditions: endpoint: median survival time, higher = longer survival. Summed up:
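Reported as T/C, where T is the survival measurement in dosed animals and C the same measurement in vehicle controls.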

Where [1] appears, read: dose: 6.25 mg/kg/injection, schedule: Q01DX009 (ip), vehicle: Klucel (hydroxypropylcellulose) (HPC).
Where [2] appears, read: dose: 12.5 mg/kg/injection, schedule: Q01DX009 (ip), vehicle: Klucel (hydroxypropylcellulose) (HPC).
The mark [3] stands for this setting: dose: 25.0 mg/kg/injection, schedule: Q01DX009 (ip), vehicle: Klucel (hydroxypropylcellulose) (HPC).
Where [4] appears, read: dose: 100.0 mg/kg/injection, schedule: Q04DX003 (ip), vehicle: saline with Tween-80.
Setting [5] is: dose: 200.0 mg/kg/injection, schedule: Q04DX003 (ip), vehicle: saline with Tween-80.
Where [6] appears, read: dose: 50.0 mg/kg/injection, schedule: Q01DX009 (ip), vehicle: saline with Tween-80.
[7] abbreviates: dose: 200.0 mg/kg/injection, schedule: Q01DX009 (ip), vehicle: saline with Tween-80.
Where [8] appears, read: dose: 100.0 mg/kg/injection, schedule: Q01DX009 (ip), vehicle: saline with Tween-80.
The mark [9] stands for this setting: dose: 25.0 mg/kg/injection, schedule: Q01DX009 (ip), vehicle: saline with Tween-80.
Setting [10] is: dose: 400.0 mg/kg/injection, schedule: Q01DX009 (ip), vehicle: saline with Tween-80.
[11] abbreviates: dose: 100.0 mg/kg/injection, schedule: Q04DX003 (ip), vehicle: Klucel (hydroxypropylcellulose) (HPC).

The structures appear in SMILES notation. Inconclusive results and toxic doses are left out.

Regarding `CCNCc1cc(Nc2cc(C)nc(/N=C(\N)Nc3ccc(Cl)c(Cl)c3)n2)ccc1OC`, the T/C reads like this: under setting [1], 90 % of control; (dose: 8.75 mg/kg/injection, schedule: Q04DX003 (ip), vehicle: Klucel (hydroxypropylcellulose) (HPC)) 112 % of control; under setting [2], 100 % of control; (dose: 17.5 mg/kg/injection, schedule: Q04DX003 (ip), vehicle: Klucel (hydroxypropylcellulose) (HPC)) 108 % of control; under setting [3], 90 % of control; (dose: 33.0 mg/kg/injection, schedule: Q04DX003 (ip), vehicle: Klucel (hydroxypropylcellulose) (HPC)) 116 % of control. Besides, the T/C is 108 % of control (dose: 35.0 mg/kg/injection, schedule: Q04DX003 (ip), vehicle: Klucel (hydroxypropylcellulose) (HPC)); 108 % of control (dose: 50.0 mg/kg/injection, schedule: Q04DX003 (ip), vehicle: Klucel (hydroxypropylcellulose) (HPC)); 108 % of control (dose: 75.0 mg/kg/injection, schedule: Q04DX003 (ip), vehicle: Klucel (hydroxypropylcellulose) (HPC)); 109 % of control (dose: 80.0 mg/kg/injection, schedule: Q04DX003 (ip), vehicle: Klucel (hydroxypropylcellulose) (HPC)).
As for `Nc1nc(=O)c2ccccc2s1`, the T/C is 105 % of control under setting [4]; 111 % of control under setting [5]; 100 % of control (dose: 400.0 mg/kg/injection, schedule: Q04DX003 (ip), vehicle: saline with Tween-80).
On to `O=C(O)CCCCOc1ccc(N(CCCl)CCCl)cc1`, for which the T/C was 174 % of control (dose: 50.0 mg/kg/injection, schedule: Q01DX001 (ip), vehicle: Klucel (hydroxypropylcellulose) (HPC)); 177 % of control (dose: 100.0 mg/kg/injection, schedule: Q01DX001 (ip), vehicle: Klucel (hydroxypropylcellulose) (HPC)); 155 % of control (dose: 200.0 mg/kg/injection, schedule: Q01DX001 (ip), vehicle: Klucel (hydroxypropylcellulose) (HPC)).
Consider `CCCCCCCCCCSc1ncnc2nc[nH]c12`, for which the T/C was 87 % of control under setting [6], 100 % of control under setting [4], 108 % of control under setting [7] and 100 % of control under setting [5].
On to `CC1(C)N=C(N)N=C(N)N1c1ccc(F)cc1`, for which the T/C (dose: 50.0 mg/kg/injection, schedule: Q01DX005 (ip), vehicle: Klucel (hydroxypropylcellulose) (HPC)) was 117 % of control.
As for `N#CCCCn1nnc(-c2ccccc2)n1`, the T/C was 100 % of control under setting [6] and 108 % of control under setting [8].
In the case of `Cc1ccccc1P(=O)(c1ccccc1C)c1ccccc1C`, the T/C under setting [9] was 90 % of control, the T/C under setting [6] is 94 % of control and the T/C under setting [8] is 94 % of control.
Consider `CC(=O)OCC1OC(n2cnc3c(=S)nc[nH]c32)C(OC(C)=O)C1OC(C)=O` (stereo not given), for which the T/C is, setting by setting: under setting [8], 118 % of control; under setting [7], 109 % of control; under setting [10], 90 % of control.
With `CC1OC(OC2CC(O)C3(CO)C4C(O)CC5(C)C(C6=CC(=O)OC6)CCC5(O)C4CCC3(O)C2)C(O)C(O)C1O` (stereo not given), the T/C runs as follows: (dose: 1.5 mg/kg/injection, schedule: Q01DX010 (ip), vehicle: saline) 90 % of control; (dose: 3.0 mg/kg/injection, schedule: Q01DX010 (ip), vehicle: saline) 90 % of control.
Take `O=C(Cc1ccc([N+](=O)[O-])cc1)c1ccccc1`: the T/C is 112 % of control under setting [11]; 104 % of control (dose: 200.0 mg/kg/injection, schedule: Q04DX003 (ip), vehicle: Klucel (hydroxypropylcellulose) (HPC)); 91 % of control (dose: 400.0 mg/kg/injection, schedule: Q04DX003 (ip), vehicle: Klucel (hydroxypropylcellulose) (HPC)).
As for `CCCCN(CCCC)CCC(O)c1cc2ccc(C(F)(F)F)cc2c2cc(C(F)(F)F)ccc12` (stereo not given), the T/C under setting [6] is 94 % of control, the T/C under setting [8] is 90 % of control and the T/C under setting [7] was 110 % of control.
Consider `O=[N+]([O-])c1cc(S(=O)(=O)OCC2CO2)ccc1Cl` (stereo not given), for which the T/C is 100 % of control under setting [1]; 95 % of control (dose: 12.0 mg/kg/injection, schedule: Q04DX003 (ip), vehicle: Klucel (hydroxypropylcellulose) (HPC)); 105 % of control under setting [2]; 120 % of control under setting [3]; 108 % of control under setting [11].
On to `Cc1nc2nccnc2[nH]1`, for which the T/C under setting [8] was 91 % of control, the T/C under setting [7] is 91 % of control and the T/C under setting [10] was 100 % of control.
With `O=C(NC(=O)c1c(F)cccc1F)Nc1ccc([N+](=O)[O-])cn1`, the T/C is, setting by setting: under setting [9], 96 % of control; under setting [6], 90 % of control; under setting [8], 90 % of control.
As to `COc1cc(NC(=O)CC(C)=O)c(OC)cc1Cl`, the T/C is 95 % of control under setting [8], 100 % of control under setting [7] and 104 % of control under setting [10].
On to `CCN(CC)CCOc1ccccc1C`, for which the T/C (dose: 20.0 mg/kg/injection, schedule: Q01DX009 (ip), vehicle: saline) was 107 % of control; the T/C (dose: 20.0 mg/kg/injection, schedule: Q04DX003 (ip), vehicle: saline) is 100 % of control; the T/C (dose: 40.0 mg/kg/injection, schedule: Q01DX009 (ip), vehicle: saline) is 100 % of control; the T/C (dose: 40.0 mg/kg/injection, schedule: Q04DX003 (ip), vehicle: saline) was 91 % of control; the T/C (dose: 80.0 mg/kg/injection, schedule: Q01DX009 (ip), vehicle: saline) was 89 % of control; the T/C (dose: 80.0 mg/kg/injection, schedule: Q04DX003 (ip), vehicle: saline) was 91 % of control.
Turning to `Cn1c(O)c(C=N)c(=O)n(C)c1=O`, the T/C is, setting by setting: (dose: 12.0 mg/kg/injection, schedule: Q01DX009 (ip), vehicle: saline) 118 % of control; (dose: 25.0 mg/kg/injection, schedule: Q01DX009 (ip), vehicle: saline) 109 % of control; (dose: 25.0 mg/kg/injection, schedule: Q04DX003 (ip), vehicle: saline) 92 % of control; (dose: 50.0 mg/kg/injection, schedule: Q01DX009 (ip), vehicle: saline) 100 % of control; (dose: 50.0 mg/kg/injection, schedule: Q04DX003 (ip), vehicle: saline) 100 % of control.
`Cc1cccc(S(=O)(=O)F)c1`: the T/C is 104 % of control (dose: 37.5 mg/kg/injection, schedule: Q01DX009 (ip), vehicle: Klucel (hydroxypropylcellulose) (HPC)); 95 % of control (dose: 75.0 mg/kg/injection, schedule: Q01DX009 (ip), vehicle: Klucel (hydroxypropylcellulose) (HPC)); 90 % of control (dose: 150.0 mg/kg/injection, schedule: Q01DX009 (ip), vehicle: Klucel (hydroxypropylcellulose) (HPC)).
As to `CN(C)C(=O)c1ccc(C(C)(C)C)cc1`, the T/C by setting is: (dose: 12.5 mg/kg/injection, schedule: Q01DX009 (ip), vehicle: other) 104 % of control; (dose: 12.5 mg/kg/injection, schedule: Q04DX003 (ip), vehicle: other) 106 % of control; (dose: 25.0 mg/kg/injection, schedule: Q01DX009 (ip), vehicle: other) 103 % of control; (dose: 25.0 mg/kg/injection, schedule: Q04DX003 (ip), vehicle: other) 121 % of control; (dose: 50.0 mg/kg/injection, schedule: Q01DX009 (ip), vehicle: other) 113 % of control; (dose: 50.0 mg/kg/injection, schedule: Q04DX003 (ip), vehicle: other) 97 % of control. The T/C (dose: 100.0 mg/kg/injection, schedule: Q01DX009 (ip), vehicle: other) was 101 % of control; the T/C (dose: 100.0 mg/kg/injection, schedule: Q04DX003 (ip), vehicle: other) is 106 % of control; the T/C (dose: 200.0 mg/kg/injection, schedule: Q04DX003 (ip), vehicle: other) was 95 % of control.
Turning to `NC(N)=N/N=C/c1cccc2ccccc12`, the T/C is 100 % of control (dose: 6.25 mg/kg/injection, schedule: Q01DX009 (ip), vehicle: saline with Tween-80); 108 % of control (dose: 12.5 mg/kg/injection, schedule: Q01DX009 (ip), vehicle: saline with Tween-80); 108 % of control under setting [9].
In the case of `COc1cccc(CCCC(=O)C(C)S(C)=O)c1` (stereo not given), the T/C reads like this: under setting [6], 112 % of control; under setting [8], 101 % of control; under setting [7], 110 % of control.
As to `COC(=O)C1=C(C)NC(C)=C(C(=O)OC)C1C(C)SC#N` (stereo not given), the T/C was 107 % of control under setting [6], 109 % of control under setting [8] and 97 % of control under setting [7].
On to `CC(=O)Oc1ccc2c(c1)C(=O)C(Br)C1C2CCC2(C)C(OC(C)=O)CCC12` (stereo not given), for which the T/C runs as follows: (dose: 50.0 mg/kg/injection, schedule: Q01DX010 (sc), vehicle: steriod suspending solution) 95 % of control; (dose: 400.0 mg/kg/injection, schedule: Q01DX010 (sc), vehicle: steriod suspending solution) 90 % of control.
